Measurements from patent US20210186943A1, “OTIC FORMULATIONS FOR DRUG-INDUCED OTOTOXICITY” (OTONOMY, INC., priority 2018, published 2021).
Where two headings read alike, the source gives them in different places.

Assays:
[1] = test system: guinea pigs; assay: Acute cisplatin-induced hearing loss (CIHL) model, ABR threshold shift; type: in vivo, guinea pig; details: single IT SP-600125 (20 mg/ml) in P407 24 hours prior to cisplatin IP 12 mg/kg; 7 days post-treatment; 4, 8, 16 kHz; vs IT P407 vehicle
Experimental: SP-600125 (20 mg/ml) in P407: 205.4 g of DI water were weighed. 1.1342 g of sodium chloride (Fisher Scientific) and 1.53 g of tromethamine (Fisher Scientific) were added. Solid materials were dissolved and the pH of the solution was adjusted to 7.8 with approximately 1.9 mL of 5 N HCl. 126.2 g of buffer was weighed and chilled down and 24.5 g of Poloxamer 407 (Lutrol F127, BASF) were added (e.g., sprinkled) while mixing to dissolve. The approximately 16% poloxamer solution was sterile filtered with a 0.22 μm PVDF 33 mm syringe filter. 207 mg of milled SP600125 (LC laboratories) was added, followed by […] of sterile filtered 16% Poloxamer 407 solution. The solution was then transferred to 3 mL autoclaved vials.
Female albino guinea pigs […] (n=6 per group) of approximately 6-8 weeks of age served as subjects for the experiments. […]
Auditory Brainstem Response (ABR) assessment—During the procedure, additional anesthetic was administered if needed to maintain the depth of anesthesia sufficient to insure immobilization and relaxation. ABRs were recorded in an electrically and acoustically shielded chamber, one ear at a time. […] Acoustic calibration was performed with TDT software (SigCal) and thresholds were expressed as dB SPL in conditions identical to that of threshold recordings in animals. […]
ABR thresholds were determined 7 days post-treatment at 3 frequencies (4, 8, and 16 kHz).

[2] = test system: dissociated strial cells; assay: Caspase-Glo 3/7 caspase activation in dissociated strial cultures (Example B7); type: cell-based, Sprague Dawley rat; details: 0.5% DMSO vs 0% DMSO
Experimental: Post cochlear dissection, Reissner's membrane and the lateral wall were gently separated from the basilar membrane with fine forceps. The stria vascularis was then pulled off the lateral wall and collected separately. Cells were then dissociated using a pipette post-trypsinization and seeded onto Poly-d-lysine-coated 96-well plates. Cells were grown for 48-72 hours to achieve 80-90% confluency before treatment. […] Following treatment, cells were exposed to the Caspase-Glo 3/7 (Promega) reagent for 30 minutes then […] was read on a plate reader.
The dissociated strial cells were mostly comprised of marginal cells by 24 hours in vitro.

[3] = test system: cochlear hair cells
Experimental: (§1) P2-P4 Sprague Dawley rat pups were used for all experiments.
(§2) Day 0: Dissected whole cochleae were mounted onto Cell-Tak-coated mesh inserts and incubated overnight in growth medium.
(§3) Day 3-4: Cochlea were fixed in 4% PFA overnight then immunohistochemically processed with the following: anti-MyoVIIa (1:500), anti-Neurofilament (1:500), Phalloidin (1:250), and DAPI (1:1000).
(§4) Z-stacks of the entire cochlea were imaged at 20x and stitched together using Zeiss Zen Black software. […] Healthy HCs and SGN fibers were counted within each box using Zeiss Zen Blue software. Error bars represent ±s.e.m. unless otherwise indicated.

[4] = test system: cochlear hair cells; assay: Effect of solvents on cisplatin-induced hair cell toxicity in cochlear explants; type: cell-based, Sprague Dawley rat; details: for Affect Cisplatin Toxicity: cisplatin exposed explants; for effect on cisplatin-induced hair cell toxicity: summary of Table M
Experimental: as §1, §2, §3, §4

[5] = test system: spiral ganglion neurons (SGNs); assay: Cisplatin-induced spiral ganglion neuron damage in ex vivo cochlear explants; type: cell-based, Sprague Dawley rat; parameters: SGN fiber density (SGNs per 200 μm): dose or concentration left out as unconfirmed
From the text: (§5) Error bars represent ±s.e.m. unless otherwise indicated.

[6] = test system: cochlear hair cells; assay: Cisplatin-induced hair cell damage in ex vivo cochlear explants; type: cell-based, Sprague Dawley rat; parameters: dose or concentration left out as unconfirmed; details: various cisplatin concentrations, 48 or 72 hours
From the text: as §5

[7] = test system: strial cells; assay: Caspase 3/7 activation in dissociated strial cultures with cisplatin and antioxidants (Example B8); type: cell-based, Sprague-Dawley rat; details: cisplatin alone
From the text: Neonatal (P2-P4) Sprague-Dawley rats were used for the experiments described here. Animals were euthanized following anesthesia using isoflurane. Rat cochleae were then dissected in cold HBSS medium enriched with glucose.
Following cochlear dissection, Reissner's membrane and the lateral wall were separated and the stria vascularis was then removed from the lateral wall. Strial cells were then dissociated, seeded onto Poly-d-lysine coated 96 well plates and grown to achieve 80-90% confluency before treatment. […] After incubation, cells were lysed using the Promega caspase 3/7 Glo kit and the intensity of caspase 3/7 were read using Perkin-Elmer Enspire plate reader.
At this stage, cells also began to show formation of vessels (Laminin staining).

[8] = test system: outer hair cells (OHCs); assay: Protection of outer hair cells from cisplatin-induced degeneration in cochlear explant model (Example B10); type: cell-based; details: 1.5 hour pretreatment followed by co-treatment with 10 μM cisplatin
Experimental: (§6) Protective effects of various otoprotectant molecules on cisplatin-induced degeneration of hair cells and spiral ganglion neurons were measured. FIGS. 19 and 20 show the quantified percent protection (normalized to naïve) graphs for outer hair cells (OHCs) and spiral ganglion neurons (SGNs).

[9] = test system: spiral ganglion neurons (SGNs); assay: Protection of spiral ganglion neurons from cisplatin-induced degeneration in cochlear explant model (Example B10); type: cell-based; details: 1.5 hour pretreatment followed by co-treatment with 10 μM cisplatin
Experimental: as §6

O=C1c2ccccc2-c2n[nH]c3cccc1c23 [SP-600125, anthra[1,9-cd]pyrazol-6(2H)-one]
ABR threshold shift [1]: dramatically reduced the ABR threshold shift

C[S+](C)[O-] [DMSO, dimethyl sulfoxide]
effect on cisplatin-induced caspase activation (relative light units) [2]: reduced cisplatin-induced caspase activation | HC Toxicity [3]: No | toxicity on naive cochlear explants [3]: no evident toxicity | Affect Cisplatin Toxicity ([4]; solvent concentration 0.1%): Yes-Protection | Affect Cisplatin Toxicity ([4]; solvent concentration 0.5%): Yes-Protection | Affect Cisplatin Toxicity ([4]; solvent concentration 1%): Yes-Protection | effect on cisplatin-induced hair cell toxicity [4]: reduced cisplatin-induced hair cell toxicity

CC(C)=O [Acetone]
HC Toxicity ([3]; solvent concentration 1%, cochlear explants): No | HC Toxicity ([3]; solvent concentration 2%, cochlear explants): No | toxicity on naive cochlear explants ([3]; summary of Table M, all tested concentrations): no evident toxicity | Affect Cisplatin Toxicity ([4]; solvent concentration 1%): No | Affect Cisplatin Toxicity ([4]; solvent concentration 2%): No

N.N.[Cl][Pt][Cl] [cisplatin]
difference from base to apex in SGN susceptibility to cisplatin ([5]; base, mid, apex regions): No significant difference | SGN fiber density (SGNs per 200 μm) ([5]; varying concentrations of cisplatin, 48 or 72 hours): decreases in a dose dependent manner | IHCs per 200 μm [6]: decreased in a dose- and exposure time-dependent manner | OHCs per 200 μm [6]: decreased in a dose- and exposure time-dependent manner | caspase 3/7 activation (RLU) [7]: increased caspase 3/7 activation

PEG400
Affect Cisplatin Toxicity ([4]; solvent concentration 2%): Yes-Protection | effect on cisplatin-induced hair cell toxicity [4]: reduced cisplatin-induced hair cell toxicity

Nc1nc2nc[nH]c2c(=S)[nH]1 [6-thioguanine]
percent protection (normalized to naïve) of outer hair cells [8]: almost complete protection | percent protection (normalized to naïve) of spiral ganglion neurons [9]: complete protection

O=C(OCc1ccccc1)c1ccccc1 [Benzyl benzoate]
HC Toxicity [3]: No | toxicity on naive cochlear explants [3]: no evident toxicity | Affect Cisplatin Toxicity ([4]; solvent concentration 0.5%): No | Affect Cisplatin Toxicity ([4]; solvent concentration 1%): No

CCO [Ethanol]
HC Toxicity [3]: No | toxicity on naive cochlear explants [3]: no evident toxicity | Affect Cisplatin Toxicity ([4]; solvent concentration 1%): No | Affect Cisplatin Toxicity ([4]; solvent concentration 2%): No | Affect Cisplatin Toxicity ([4]; solvent concentration 2.5%): No

CN1CCCC1=O [N-Methyl-2-pyrrolidone]
HC Toxicity [3]: Yes

CC#N [Acetonitrile]
HC Toxicity ([3]; solvent concentration 3%, cochlear explants): Slight | Affect Cisplatin Toxicity ([4]; solvent concentration 3%): No
